Reference: patent publication US20230287083A1, “CD1 PEPTIDE-EPITOPE FOR USE IN THE TREATMENT OF A DISEASE CAUSED BY AN INT[…]” (priority 2020, published 2023)
Residues, ends and D or L forms follow the SMILES beside them.

What was measured:
HSV = test: Cellular immune response towards live-attenuated HSV vaccine after peptide pre-immunization; type: in vivo, BALB/c mice; details: one month after last injection
Method: BALB/c mice are immunized in footpath with 100 μg of peptide of SEQ ID NO:5 emulsified in complete Freund's adjuvant, and this injection is repeated once after an interval of 2 weeks, the second injection being made in incomplete Freund's adjuvant. A control group of BALB/c mice is treated with adjuvant alone.
All mice then receive a commercial preparation of live-attenuated HSV on 2 occasions separated by one month.
One month after the last injection, the immune response towards the vaccine is compared between the 2 groups.

[1] = test system: hemagglutinin from influenza A virus; parameters: species or system C57BL/6 mice; details: mouse, in vivo
[2] = test system: hemagglutinin from influenza A virus; parameters: species or system C57BL/6 mice; details: mouse, in vivo; remark: listed apart in the source
[3] = test system: hemagglutinin from influenza A virus; parameters: species or system C57BL/6 mice; details: mouse, in vivo; remark: listed apart in the source
Coxsackie B4-V = Coxsackie B4-V infection, pancreas cellular infiltration / pancreatitis; type: in vivo, BALB/c mice
Method: BALB/c mice are immunized by footpath injection of 100 μg of peptide of SEQ ID NO:2 emulsified in Freund's adjuvant, on 2 occasions at a 2-weeks interval. A control group is injected with the adjuvant alone.
All mice are then immunized with the full polyprotein adsorbed on alum, using 100 μg per injection, for a total of 4 injections administered at an interval of 2 weeks.
Three weeks after the last injection, all mice are infected with 50 PFU of the B4-V strains in peritoneum.
Within 3 days after infection, the pancreas of 50% of the mice is isolated and examined for cellular infiltration. All mice in the control group show massive infiltration by mononuclear cells in the acini.

SARS-CoV-2 S protein [4] = test: Splenocyte immune response towards S protein after peptide pretreatment and S protein immunization; type: in vivo, C57BL/6 mice
Method: (§1) Peptide of SEQ ID NO:3 is used to immunize C57BL/6 mice at a dose of 100 μg emulsified in complete Freund's adjuvant, followed by a second injection of 100 μg in incomplete Freund's adjuvant 3 weeks later. A control group receives only the adjuvant.
(§2) Both groups of mice are then immunized with 100 μg of S protein in alum, administered at 2-week intervals, starting 3 weeks after injection of peptide of SEQ ID NO:3 (or adjuvant), for a total of 4 injections at 2 weeks interval.
(§3) The immune response towards S protein is then evaluated on splenocytes retrieved either 2 or 6 months after the last injection and titers of specific antibodies are evaluated on serum.

SARS-CoV-2 S protein [5] = test: Specific anti-S protein antibody titers and isotypes in serum; type: in vivo, C57BL/6 mice; details: for specific anti-S protein antibody titers: vs control
Method: as §1, §2, §3

NS5 [6] = test: Same NS5 experiment repeated in BALB/c mice; type: in vivo
NS5 [7] = test: Detection of NS5-specific NKT cells (PLZF staining) with JAWS2 presenting cells; type: in vivo, C57BL/6 mice; details: CD3+ cells incubated with JAWS2 presenting cells
Method: (§4) Peptide of SEQ ID NO:1 is emulsified in complete Freund's adjuvant and injected subcutaneously at a dose of 100 μg in a series of C57BL/6 mice, followed after 2 weeks by the same injection in incomplete Freund's adjuvant. A control group is injected according to the same schedule with adjuvant alone.
(§5) Two weeks after the last injection both groups of mice are treated by a subcutaneous injection of NS5 protein in alum, repeated every 2 weeks four times.
(§6) The spleen of all mice is obtained one month after the last injection and the population of CD3+ lymphocytes isolated by FACS sorting.
In parallel experiments CD3+ cells are incubated with JAWS2 as presenting cells.

NS5 [8] = test: NS5-specific activation of splenic CD3+ lymphocytes (3H-thymidine incorporation) after peptide pre-injection and NS5 vaccination; type: in vivo, C57BL/6 mice
Method: as §4, §5, §6
Cells are then maintained in culture in the presence of antigen-presenting cells loaded with NS5 and the proportion of activated cells numbered after 6 days by incorporation of 3H-thymidine.

[9] = C57BL/6, vs adjuvant-only control

CC(C)C[C@H](NC(=O)[C@H](Cc1c[nH]cn1)NC(=O)[C@H](CC(C)C)NC(=O)[C@H](Cc1ccccc1)NC(=O)[C@H](CC(C)C)NC(=O)[C@@H](N)C(C)C)C(=O)N[C@@H](Cc1ccc(O)cc1)C(=O)N[C@@H](CC(C)C)C(=O)N[C@@H](Cc1ccccc1)C(=O)N[C@@H](CC(C)C)C(=O)N[C@H](C(=O)O)[C@@H](C)O [peptide of SEQ ID NO:5, VL-FLHLYLF-LT] (H-VLFLHLYLFLT-OH)
cells sharing a cytotoxicity potential (CD8+ T cells, NK cells, NKT cells) (HSV): significant expansion

GL-FGAIAGF-IE [peptide of SEQ ID NO:4]
isotype distribution of anti-hemagglutinin antibodies in serum [1]: high concentrations of IgG2a
type of immune response towards hemagglutinin (CD8+, NK and NKT cells) [2]: dominated by a Th1-like and cytotoxic response
ratio of IFN-gamma over IL-4 production [3]: high ratio of IFN-gamma over IL-4

EK-FRDIRGF-LA [peptide of SEQ ID NO:2]
pancreatitis signs (Coxsackie B4-V; day 10 after infection, control: persisting infiltration, disappearance of acini structure): complete resolution of pancreatitis signs
pancreas cellular infiltration by mononuclear cells in the acini (Coxsackie B4-V; within 3 days after infection with 50 PFU B4-V, control: massive infiltration): moderate infiltration

ATR FASVYAW NRK (FASVYAWNRK) [peptide of SEQ ID NO:3]
number of CD8+ T cells relative to CD4+ T cells (SARS-CoV-2 S protein [4]; 2 months after last injection, reverse in control group): outweigh the number of CD4+ T cells
number of CD8+ T cells relative to CD4+ T cells (SARS-CoV-2 S protein [4]; 6 months after last injection): same trend towards preferential CD8+ T cells
numbers of CD3+ lymphocytes towards protein S (SARS-CoV-2 S protein [4]; vs control mice): significantly higher numbers
specific anti-S protein antibody titers (SARS-CoV-2 S protein [5]; 2 months after end of immunization): significantly higher titers
isotypic distribution of anti-S protein antibodies (SARS-CoV-2 S protein [5]; 2 months, vs control group): dramatic shift from IgG1 in the control group towards IgG2a
specific anti-S protein antibody titers (SARS-CoV-2 S protein [5]; 6 months after end of immunization): significantly higher titers
isotypic distribution of anti-S protein antibodies (SARS-CoV-2 S protein [5]; after 6 months): shift was maintained

AG-HGQVDNF-SL [peptide of SEQ ID NO:1]
result of the same experiment in BALB/c mice (NS5 [6]): essentially the same results
NS5-specific NKT cells detected by PLZF staining (NS5 [7]): found only in the group of mice which has been pre-sensitized with peptide of SEQ ID NO:1
total number of NS5-specific cells (NS5 [8]; C57BL/6, 100 μg peptide s.c. in CFA then IFA before NS5 in alum, vs adjuvant-only control): significantly higher
number of NS5-specific CD4 cells (NS5 [8]; [9]): higher number is observed
number of NS5-specific CD8 cells (NS5 [8]; [9]): highly significant
variation in numbers of CD4, CD8 and NKT cells between individuals and between strains (NS5 [8]; C57BL/6 and BALB/c, large variations in control groups): very little variation
